In US8772268B2, “Bisphosphonamidate prodrugs and uses thereof” (The Johns Hopkins University, priority 2010, dated 2014):
Values joined by “and” are separate entries in the source; they are usually repeats but may differ in a detail not shown here. Equal entries are not always repeated. Where two headings read alike, the source gives them in different places.

How the values were obtained:
A549 NSCLC cells [1] = test: Activity of other esters against NSCLC (FIG. 13A-D); assay type: cell-based; settings: Homo sapiens
Experimental: Cells were dosed as described above. […] The results shown in FIG. 13 are from a single experiment only.
Results are shown in FIG. 13 and in the table below

[2] = system: PIP3 (prostate) cancer cell line; test: MTS cell proliferation assay, PIP3; assay type: cell-based
Experimental: (§1) Cell proliferation was determined using the CellTiter 96 Aqueous One Solution Cell Proliferation Assay MTS assay. A549 NSCLC cells were plated at 1.5×10^3 cells per well in flat bottom 96 well plates in 99 μL of media and allowed to adhere overnight. The drugs were serially diluted in 100% DMSO. For each drug treatment group, 1 μL of a 100× stock solution was added to each well for a final DMSO concentration of 1%. Cells were treated for 24, 48 or 72 hours. Cells were incubated with MTS dye (20 μL well^−1) for 40 min to 2 h. Absorbance at 490 nm was determined using a SpectraMax M2 (Molecular Devices) plate reader. The percent cell proliferation was calculated by converting the experimental absorbance to percentage of control, which was then plotted vs. drug concentration. The IC50 values were determined using a non-linear dose-response analysis in GraphPad Prism version 4.0. The IC50 is defined as the concentration of drug needed to cause a 50% decrease in proliferation compared to vehicle control.
(§2) The activity of Clodronate prodrug (14) was tested against other cell lines, include prostate (PIP3) and breast (MDA-MB-453) cancer cells lines. Cell proliferation was determined using the CellTiter 96 Aqueous One Solution Cell Proliferation Assay MTS assay as discussed above. Results are shown in FIG. 22 and in the table below.

P. falciparum (NF54) = test: Antimalarial [3H]-hypoxanthine incorporation assay; assay type: cell-based, Plasmodium falciparum
Experimental: Plasmodium falciparum culture. NF54 P. falciparum parasites were maintained in O+ positive erythrocytes (obtained weekly from a rotating pool of screened healthy donors) in complete medium containing RPMI (Sigma), 25 mM N-2-hydroxyethylpiperazine-N′-2-ethanesulfonic acid (HEPES; Sigma), 27 mM sodium bicarbonate (Sigma) and 10% heat-inactivated male O+ serum in non-vented flasks. Hematocrit was maintained at 2.4%. Flasks were gassed with a mixture of 3% oxygen, 4% carbon dioxide, 93% nitrogen. Parasitemia was maintained at 0.1-5% by changing medium and erythrocytes two to three times a week.
Antimalarial activity was measured using a [^3H]-hypoxanthine incorporation assay as described previously (Desjardins et al., Antimicrob. Agents Chemother., vol. 16, p. 710, 1979; Milhous et al., Antimicrob. Agents Chemother., vol. 27, np. 525, 1985). […] For surveys, each concentration was assayed in triplicate while in expansions, each concentration was assayed in quadruplicate. To each well, 0.64 μCi of [^3H]-hypoxanthine (10-30 Ci/mmol; Perkin Elmer) was added and the plate was incubated for an additional 20 to 24 h. Samples from each well were harvested on filter paper and tritium counts were measured on the Beckmann Coulter LS6500 scintillation counter. […] Values considered as outliers according to Chauvenet's criterion were discarded and dropped from analysis. One survey and at least one expansion was performed for each compound.

L1210 = test: Cytotoxicity, L1210; assay type: cell-based
A549 NSCLC cells [3] = test: MTS cell proliferation assay, A549; assay type: cell-based; settings: for EC50: Homo sapiens, A549 (NSCLC), MTS, table of Example 3; for growth inhibitory effect against A549 cells: concentrations up to 1 mM; for IC50: A549, MTS, read-out: IC50 (decreased cell proliferation by 50% compared to control)
Experimental: as §1, with “control. […]” for “control.”

lung cancer cell lines = settings: cited from earlier work
[4] = system: MDA-MB-453 (breast) cancer cell line; test: MTS cell proliferation assay, MDA-MB-453; assay type: cell-based; settings: Homo sapiens
Experimental: as §1, §2

[5] = system: breast and ovarian cancers; settings: cited from earlier work
A549 NSCLC cells [6] = test: Trypan blue cell count assay, A549; settings: for EC50: read-out: EC50 (decreased cell number by 50% compared to control)
Experimental: A549 NSCLC cells were plated at 1.7×10^4 cells per well in flat bottom 12-well plates. Cells were dosed as described above. At 24, 48 or 72 hours following drug treatment, the media was collected, and the cells were washed with 200 μL PBS. Each well was trypsinized with 200 μL trypsin for 3-5 min. The trypsin reaction was quenched with an equal volume of media. All supernatants and washes were combined and spun at 1,500 rpm for 5 min. Supernatant was decanted, and the cells were resuspended in 200 μL media. The cells were diluted 1:1 in 0.04% trypan blue and counted using a cytometer. The absolute number of cells was determined at each drug concentration. The cell number for each concentration was converted to percent of control for each time point, and plotted using GraphPad Prism 4.0. The EC50 was calculated as the concentration of drug that caused a 50% decrease in number of cells compared to control.
The number of viable cells at each dose was determined at 0, 24, 48 and 72 hours following drug treatment and plotted as a percent of control (FIG. 6A).

A549 = test: Cyclized zoledronate intermediate vs zoledronic acid, normoxia/hypoxia, A549; assay type: cell-based; settings: Homo sapiens
H358 = test: Cyclized zoledronate intermediate vs zoledronic acid, normoxia/hypoxia, H358; assay type: cell-based; settings: Homo sapiens
[7] = system: several cancer cell lines; settings: cited from earlier work
[8] = A549, 24 h, single experiment, read-out: IC50 24 h
[9] = A549, 48 h, single experiment, read-out: IC50 48 h
[10] = A549, 72 h, single experiment, read-out: IC50 72 h
[11] = Plasmodium falciparum, P. falciparum (NF54), read-out: IC50

## CN(CCCCCl)P(=O)(CP(=O)(OCc1ccccc1)N(C)CCCCCl)OCc1ccccc1 (stereo not drawn) [Deschlorobenzyl Analog]
A549 NSCLC cells [1]; [8]
  IC50: 21.6 µM
A549 NSCLC cells [1]; [9]
  IC50: 12.8 µM
A549 NSCLC cells [1]; [10]
  IC50: 7.8 µM

## O=P(O)(O)C(Cl)(Cl)P(=O)(O)O [Clodronate, clodronate, reference compound]
[2]
  EC50: > 1000 µM
P. falciparum (NF54); [11]
  IC50: 750 µM
L1210; Mus musculus
  IC50: 830 µM
A549 NSCLC cells [3]
  EC50: > 1000 µM
  growth inhibitory effect against A549 cells: minimal activity
A549 NSCLC cells [3]; listed as clodronate
  growth inhibitory effect against A549 cells: does not exhibit a detectable growth inhibitory effect
Lung cancer cell lines
  activity against lung cancer cell lines: minimal activity
[4]
  EC50: > 1000 µM
[5]
  growth inhibition: high micromolar or low millimolar range

## O=P(O)(O)CP(=O)(O)O [Bisphosphonate, reference compound]
A549 NSCLC cells [3]
  growth inhibitory effect against A549 cells: minimal activity

## COP(=O)(N(C)CCCCCl)C(Cl)(Cl)P(=O)(OC)N(C)CCCCCl (stereo not drawn) [Methoxy analog]
P. falciparum (NF54); [11]
  IC50: 22 µM
A549 NSCLC cells [1]; [8]
  IC50: 93.4 µM
A549 NSCLC cells [1]; [9]
  IC50: 100 µM
A549 NSCLC cells [1]; [10]
  IC50: 76.3 µM

## CN(CCCCCl)P(=O)(OCCc1ccc([N+](=O)[O-])cc1)C(Cl)(Cl)P(=O)(OCCc1ccc([N+](=O)[O-])cc1)N(C)CCCCCl (stereo not drawn) [Nitrophenethyl analog]
P. falciparum (NF54); [11]
  IC50: 0.97 ± 0.21 µM
A549 NSCLC cells [1]; [8]
  IC50: 4.8 µM
A549 NSCLC cells [1]; [9]
  IC50: 3.1 µM
A549 NSCLC cells [1]; [10]
  IC50: 2.1 µM
A549 NSCLC cells [6]; Homo sapiens, A549, 24 h
  EC50: ~10 µM
A549 NSCLC cells [6]; Homo sapiens, A549, 48 h
  EC50: 3.5 µM
A549 NSCLC cells [6]; Homo sapiens, A549, 72 h
  EC50: 4.2 µM

## CCN(CC)P(=O)(OCc1ccc([N+](=O)[O-])cc1)C(Cl)(Cl)P(=O)(OCc1ccc([N+](=O)[O-])cc1)N(CC)CC (stereo not drawn) [Diethylamine Analog]
P. falciparum (NF54); [11]
  IC50: 3.3 µM

## CN(CCCCCl)P(=O)(CP(=O)(OCc1ccc([N+](=O)[O-])cc1)N(C)CCCCCl)OCc1ccc([N+](=O)[O-])cc1 (stereo not drawn) [compound 13]
P. falciparum (NF54); P. falciparum (NF54), read-out: IC50
  IC50: 5.2 ± 0.21 µM
L1210
  IC50: 27 µM
A549 NSCLC cells [3]; 24 h
  IC50: 17 ± 4 µM
A549 NSCLC cells [3]; 48 h
  IC50: 15.2 µM and 15 µM
A549 NSCLC cells [3]; 72 h
  IC50: 13 ± 1 µM
A549 NSCLC cells [3]; A549 cells
  decrease in IC50 of 13 compared to 14: 3 fold
A549 NSCLC cells [6]; A549, 48 h
  EC50 (trypan blue) fold higher than IC50 (MTS): ~3.6 fold
A549 NSCLC cells [6]; A549, trypan blue, 48 h
  EC50: 24 ± 4 µM
A549 NSCLC cells [6]; A549, trypan blue, 72 h
  EC50: 25 ± 4 µM
A549 NSCLC cells [6]; A549, trypan blue, 72 h, listed as Bisphosphonate Prodrug
  EC50: 24 ± 4 µM

## O=P(O)(O)C(O)(Cn1ccnc1)P(=O)(O)O [Zoledronate, zoledronate]
[2]
  EC50: 78 µM
A549; A549, 48 h, Hypoxia
  IC50: 350 µM
A549; A549, 48 h, Normoxia
  IC50: 98 µM
A549; A549, 72 h, Hypoxia
  IC50: 205 µM
A549; A549, 72 h, Normoxia
  IC50: 45 µM
A549 NSCLC cells [3]
  EC50: 58 µM
H358; NCI-H358, 48 h, H358, 48 hrs, Hypoxia
  IC50: 87 µM
H358; NCI-H358, 48 h, H358, 48 hrs, Normoxia
  IC50: 59 µM
H358; NCI-H358, 72 h, H358, 72 hrs, Hypoxia
  IC50: 135 µM
H358; NCI-H358, 72 h, H358, 72 hrs, Normoxia
  IC50: 15 µM
[4]
  EC50: 191 µM
[7]
  IC50: ≥ 3 µM

## CN(CCCCCl)P(=O)(OCc1ccccc1)C(Cl)(Cl)P(=O)(OCc1ccccc1)N(C)CCCCCl (stereo not drawn) [Chlorobenzyl analog]
P. falciparum (NF54); Plasmodium falciparum, NF54
  IC50: 5.9 µM
A549 NSCLC cells [1]; A549, 24 h, read-out: IC50 24 h
  IC50: 18.9 µM
A549 NSCLC cells [1]; A549, 48 h, read-out: IC50 48 h
  IC50: 11.9 µM
A549 NSCLC cells [1]; A549, 72 h, read-out: IC50 72 h
  IC50: 11.6 µM
